Test results from patent US20250327028A1, “ENGINEERED PLATELETS AS TARGETED PROTEIN DEGRADERS” (Wisconsin Alumni Research Foundation, priority 2024, published 2025).

Columns and labels:
HSP90 = test: Quantification of biotin-labeled contents in platelets (biotin quantitation kit); format: cell-based, BALB/c mice; conditions: 2 h
Experimental: The fresh platelets were incubated with HAC-B at 2.5, 5, 10, 20, and 40 μM for 2 h, and the corresponding lysates were collected using the IP lysis buffer containing PMSF and phosphatase inhibitor cocktail. The biotin-labeled contents in each lysate supernatant were quantified by the QuantTag™ biotin quantitation kit, and the relevant engineering efficiency was calculated based on dividing the amount of biotin-labeled contents by the HAC-B amount added.

HSP90 and BRD4 = test: co-Immunoprecipitation of BRD4 with anti-HSP90 antibody in 4T1 cell lysate; format: cell-based, murine; conditions: 4T1 cells, 10 μM, 2 h
Experimental: co-Immunoprecipitation assay: 2×10^6 4T1 cells were seeded in T75 cell culture flasks and cultured for 24 h. Then, the medium in the corresponding flasks was replaced with 15 mL of blank medium with DMSO or iHAC (10 μM). Following incubation for another 2 h, the cells were washed with cold PBS twice and digested with 2 mL of trypsin. As for the iDePMP treatment, 1×10^9 iDePLTs were generated as the above engineering method and suspended in 3 mL of PBS containing thrombin (0.5 U/mL), followed by incubation at 37° C. for 0.5 h. The platelet suspensions were evenly divided and subjected to a sequentially combined centrifugation at 5000 g for 5 min and at 11,000 g for 1 min, followed by further centrifugation at 2500 g for 15 min at room temperature. The combined supernatants were supplemented to 12 mL blank medium to treat 4T1 cells in the relevant flasks. After incubation for 6 h, the cells were washed with cold PBS twice and digested with 2 mL of trypsin. The cell pellets were collected through centrifugation at 1200 rpm for 3 min and washed with cold PBS. The final pellets were directly lysed on ice with RIPA buffer containing PMSF (1 mM) and the phosphatase inhibitor cocktail for 30 min. […] The total proteins in the precleared samples were quantified through the BCA assay, and 20 μL of the precleared solution samples were saved as the input samples. […]

BRD4 [1] = target: T1, BRD4 (Homo sapiens, UniProt O60885); test: Immunoblot analysis of BRD4 degradation in WT MDA-MB-231 cells after free HAC treatment; format: cell-based
T1 construct: endogenous in cells; host or cells: WT MDA-MB-231 (ATCC)
Text: (§1) Immunoblot analysis: Immunoblot analysis was used to evaluate the expression of BRD4, HSP90, HSP90a, and PD-L1 in 4T1, WT MDA-MB-231, HSP90α-KO MDA-MB-231 or PEA-10 cells after various treatments and also served as the detection method for IP or co-IP experiments. The procedures for preparing IP or co-IP samples were indicated in the relevant experimental parts.
Sample preparation for various cancer cells after free HAC treatment: Various cells, including 4T1, WT MDA-MB-231, HSP90α-KO MDA-MB-231, or PEA-10 cells, were seeded in 6-well culture plates with a density of 5×10^4 cells in each well and cultured for 24 h. Then, if HAI pretreatment was performed, the cells were incubated in the HAI-containing blank medium at different concentrations for 2 h and washed with PBS twice before the following treatments. The medium in the corresponding wells was replaced with 1 mL of blank medium containing the DMSO vehicle, HACs, or the combinations of various free ligands at the predetermined concentrations. After incubation for the indicated time points, cells were washed with PBS and lysed on ice with the relevant lysis buffer containing PMSF (1 mM) and the phosphatase inhibitor cocktail for 30 min. As for the conditioned medium (CM), the culturing complete medium of the corresponding cancer cells in each well was collected after 24-h incubation and subjected to centrifugation at 2000 rpm for 5 min to obtain the supernatant. The filtrate of the supernatants was collected following filtration over a 0.45 μm filter, serving as the CM. […]
General procedures for immunoblot analysis: After a 30-min lysis, the lysates were centrifuged at 10,000 g for 10 minutes at 4° C., and the corresponding supernatants were collected, followed by quantification of the total proteins in the supernatant through the BCA assay. […] Finally, the bands were treated with electrochemiluminescence (ECL) western blot substrate, detected by the iBright™ imaging system and quantified with ImageJ software. […]

BRD4 [2] = target: T2, BRD4 (Mus musculus, UniProt Q9ESU6); test: Immunoblot analysis of BRD4 degradation in 4T1 cells after free HAC treatment; format: cell-based, murine
T2 construct: endogenous in cells; host or cells: 4T1
Text: as §1
Sample preparation for various cancer cells after free HAC treatment: Various cells, including 4T1, WT MDA-MB-231, HSP90α-KO MDA-MB-231, or PEA-10 cells, were seeded in 6-well culture plates with a density of 5×10^4 cells in each well and cultured for 24 h. Then, if HAI pretreatment was performed, the cells were incubated in the HAI-containing blank medium at different concentrations for 2 h and washed with PBS twice before the following treatments. The medium in the corresponding wells was replaced with 1 mL of blank medium containing the DMSO vehicle, HACs, or the combinations of various free ligands at the predetermined concentrations. After incubation for the indicated time points, cells were washed with PBS and lysed on ice with the relevant lysis buffer containing PMSF (1 mM) and the phosphatase inhibitor cocktail for 30 min. As for the conditioned medium (CM), the culturing complete medium of the corresponding cancer cells in each well was collected after 24-h incubation and subjected to centrifugation at 2000 rpm for 5 min to obtain the supernatant. The filtrate of the supernatants was collected following filtration over a 0.45 μm filter, serving as the CM. Regarding the cell samples for BRD4 detection, the lysis buffer containing HEPES-KOH (pH=7.5, 10 mM), NaCl (500 mM), EDTA (5 mM), NP-40 (1%), and SDS (0.1%) was used with the indicated PMSF and phosphatase inhibitor cocktail. As for PD-L1 detection, RIPA buffer (Thermo Fisher Scientific/J63306.AP) was used with the indicated PMSF and phosphatase inhibitor cocktail.
General procedures for immunoblot analysis: After a 30-min lysis, the lysates were centrifuged at 10,000 g for 10 minutes at 4° C., and the corresponding supernatants were collected, followed by quantification of the total proteins in the supernatant through the BCA assay. Afterward, the proteins in the supernatant were mixed with the loading buffer and heated at 95° C. for 15 min. Equal amounts of proteins from different samples ([…]) were loaded into the Bis-Tris gel formulated with Bis-Tis buffer, 30% acrylamide/Bis, 10% ammonium persulfate (APS) solution, and TEMED. The separated proteins were transferred to polyvinylidene fluoride (PVDF) membranes before the membranes were blocked with 5% nonfat milk in PBS-T. Next, the PVDF membranes were incubated with primary antibodies overnight at 4° C., if necessary, followed by the incubation with the goat-anti-rabbit IgG H & L (HRP) secondary antibodies at room temperature for 2 h. Finally, the bands were treated with electrochemiluminescence (ECL) western blot substrate, detected by the iBright™ imaging system and quantified with ImageJ software. 8% Bis-Tris gels were used for BRD4 detection, and 10% gels were adopted to analyze PD-L1.

shape of concentration response of BRD4 degradation (BRD4 [1]; at relatively lower concentrations, reversed at 20 μM)	time dependence of BRD4 downregulation (BRD4 [1]; at the two effective concentrations)	higher effective concentration that efficiently reduces BRD4 expression (BRD4 [2]; 4T1 cells, 24 h)	lower effective concentration that efficiently reduces BRD4 expression (BRD4 [2]; 4T1 cells, 24 h)	time dependence of BRD4 downregulation (BRD4 [2]; 4T1 cells, at the two effective concentrations)	shape of concentration response of BRD4 degradation (BRD4 [2]; 4T1 cells, at relatively lower concentrations, reversed at 20 μM)	Structure (SMILES)	HAC-B concentration at which biotin-labeled content inside platelets reaches a peak (HSP90)	BRD4 co-precipitated with anti-HSP90 antibody (HSP90 and BRD4)	BRD4 degradation in presence of proteasome inhibitor epoxomicin (Epox) (BRD4 [2]; 4T1 and WT MDA-MB-231 cells (FIGS. 2K, 2L), lower or higher effective concentrations)
–	–	–	–	–	–	N#CCN(C(=O)CCCC[C@@H]1SC[C@@H]2NC(=O)N[C@@H]21)S(=O)(=O)c1ccc(C(=O)NCCCn2c(Sc3cc4c(cc3I)OCO4)nc3c(N)ncnc32)cc1 [HAC-B, N-(3-(6-amino-8-((6-iodobenzo[d][1,3]dioxol-5-yl)thio)-9H-purin-9-yl)propyl)-4-(N-(cyanomethyl)-N-(5-((3aS,4S,6aR)-2-oxohexahydro-1H-thieno[3,4-d]imidazol-4-yl)pentanoyl)sulfamoyl)benzamide]	20 µM	–	–
hook effect	in a time-dependent manner	20 µM	0.16 µM	in a time-dependent manner	hook effect	Cc1sc2c(c1C)C(c1ccc(Cl)cc1)=N[C@@H](CC(=O)NCc1cn(CCCC(=O)N(CC#N)S(=O)(=O)c3ccc(C(=O)NCCCn4c(Sc5cc6c(cc5I)OCO6)nc5c(N)ncnc54)cc3)nn1)c1nnc(C)n1-2 [iHAC, (S)—N-(3-(6-amino-8-((6-iodobenzo[d][1,3]dioxol-5-yl)thio)-9H-purin-9-yl)propyl)-4-(N-(4-(4-((2-(4-(4-chlorophenyl)-2,3,9-trimethyl-6H-thieno[3,2-f][1,2,4]triazolo[4,3-a][1,4]diazepin-6-yl)acetamido)methyl)-1H-1,2,3-triazol-1-yl)butanoyl)-N-(cyanomethyl)sulfamoyl)benzamide]	–	could considerably enhance the interaction between BRD4 and HSP90	rescue effect induced by proteasome inhibitor epoxomicin (Epox)
